Reference: paper PMC3927586, “Protein kinase C-delta inactivation inhibits the proliferation and survival of cancer stem cells in culture and in vivo” (BMC Cancer, 2014)
pIC50: −log10 of the molar value. Values joined by “and” are separate entries in the source; they are usually repeats but may differ in a detail not shown here. Identical values can stand only once. Like-named read-outs stand apart in the source and are kept apart here.

How the values were obtained:
recombinant PKCδ = molecular target: T1, recombinant PKCδ (Homo sapiens, UniProt Q05655); assay: PKC kinase activity assay (Z-lyte), PKCδ; format: biochemical; conditions: for PKCδ/PKCα Selectivity ratio: PKCδ versus PKCα in vitro
T1 construct: purchased Invitrogen
Experimental: (§1) Assays were carried out using recombinant PKCδ or PKCα, (Invitrogen) and the Z-lyte Kinase Assays (Invitrogen) with a “PKC-kinase-specific” peptide substrate. FRET interactions produce a change in fluorescence (ex455/ex520) upon phosphorylation. The kit was used according to the manufacturer’s instructions.

recombinant PKCα = molecular target: T2, recombinant PKCα (Homo sapiens, UniProt P17252); assay: PKC kinase activity assay (Z-lyte), PKCα; format: biochemical
T2 construct: purchased Invitrogen
Experimental: as §1

PCSC cells = assay: Cytotoxicity (LDH release) in pancreatic cancer stem cells; format: cell-based, human
Experimental: LDH release was assessed by spectrophotometrically measuring the oxidation of NADH in both the cells and media. Cells were seeded in 24-well plates, and exposed to PKCδ inhibitors or vehicle. After different times of exposure, cytotoxicity was quantified by a standard measurement of LDH release with the use of the LDH assay kit (Roche Molecular Biochemicals) according to the manufacturer’s protocol. Briefly, total culture medium was cleared by centrifugation. For assay of released LDH, supernatants were collected. To assess total LDH in cells, Triton X-100 was added to vehicle (control) wells to release intracellular LDH. LDH assay reagent was added to lysates or supernatants and incubated for up to 30 min at room temperature in dark, the reaction was stopped, and the absorbance was measured at 490 nm. The percentage of LDH release was then calculated as the LDH in the supernatants as a fraction of the total LDH.
Figure 2 Effects of PKCδ inhibitors on human cancer stem cells. (A) PCSC and PrCSC cells at 80% confluence were exposed to rottlerin. DMSO served as vehicle control (Vehicle). After 24 and 72 hr of exposure, cell mass was evaluated by MTT assay. Control values were normalized to 100%. p values for comparison between treatments reached significance at 24 hr of exposure (p≤0.01) for both cell types, and remained significant at 72 hr. (B) PCSC and PrCSC cells at 50% confluence were exposed to rottlerin. Cytotoxicity was evaluated by LDH-release assay. Total maximal LDH release was assigned the arbitrary value of 100% (Control). p values for comparison between effects of treatments on LDH release reached significance at 24 hr of exposure (p<0.01) for both cell types, and remained significant at 72 hr. (C) Effects of PKCδ inhibitor on tumor cell clonogenic capacity. PCSC were exposed to vehicle or rottlerin (10 μM) for 6, 18, 24, or 48 hr. Viable cells were enumerated and re-plated in media without inhibitor, and colony numbers were quantitated 15 days later. p values for comparison of treatment effects on clonogenic capacity reached significance (p=0.005) at 18 hr of exposure and remained significant for all subsequent exposure times. The insert is a photograph of stained colonies on plates. (D) Structures of staurosporine, rottlerin, second-generation (KAM1) and third-generation (BJE6-106) derivatives. (E) PCSC and PrCSC cells at 50% confluence were exposed to KAM1 at the indicated concentrations. DMSO served as vehicle control (Vehicle). Cytotoxicity was evaluated by LDH-release assay, as in panel B. p values for comparison between treatment effects on LDH release reached significance at 24 hr of exposure to 2.5 μM KAM1 for PCSC cells and at 10 μM for PrCSC (p≤0.01), and remained significant at 72 hr for all concentrations of KAM1. Error bars represent SEM.

[1] = test system: breast cancer stem cells (BCSC); assay: Tumor spheroid formation, BCSC; format: cell-based, human; conditions: added to culture medium, 96 hr, p≤0.001
Experimental: (§2) Tumor self-renewing and anchorage-independent spheroids were obtained by culturing breast cancer cells MCF7, Hs587T and MDA231; melanoma cells SBcl2 and FM6; human breast cancer stem cells and pancreatic cancer stem cells in stem cell-selective conditions according to the manufacturer’s instructions (StemCell Technologies, Tukwila, WA). Briefly, cancer and cancer stem cells were propagated in 6-well ultra-low adherent plates (Corning) in Complete MammoCult Medium (Human) by adding 50 mL of MammoCult Proliferation Supplements to 450 mL of MammoCult Basal Medium (StemCell Technologies). The following were added to obtain Complete MammoCult Medium: 4 ug/mL Heparin (StemCell Technologies), 0.48 μg/mL hydrocortisone (StemCell Technologies), 200 U penicillin/ml; and 200 μg streptomycin/ml (Invitrogen).
(§3) Figure 4 Effects of PKCδ inhibitors on human tumor cell spheroid formation. […] Tumor spheroids and adherent cells were collected at 96 hr, stained for CD24 and CD44, and analyzed by flow cytometry. […] After 24, 48 and 72 hr of exposure, cell mass was evaluated by MTT assay. […] Viable cells were enumerated and re-plated in media without BJE6-206, and spheroid numbers were quantitated 96 hr later. p values for comparison between vehicle and BJE6-106 effects on spheroid number were significant after 6 hr of exposure (p≤0.02), and remained significant at all time points thereafter. […]

[2] = test system: pancreatic cancer stem cells (PCSC); assay: Tumor spheroid formation, PCSC; format: cell-based, human; conditions: added to culture medium, 96 hr, p≤0.001
Experimental: as §2, §3

PC3 = assay: Tumor spheroid growth, PC3 prostate cancer; format: cell-based, human; conditions: p < 0.001
[3] = in vitro kinase assay, read-out: PKCδ IC50

T1 sequence (Q05655 whole entry): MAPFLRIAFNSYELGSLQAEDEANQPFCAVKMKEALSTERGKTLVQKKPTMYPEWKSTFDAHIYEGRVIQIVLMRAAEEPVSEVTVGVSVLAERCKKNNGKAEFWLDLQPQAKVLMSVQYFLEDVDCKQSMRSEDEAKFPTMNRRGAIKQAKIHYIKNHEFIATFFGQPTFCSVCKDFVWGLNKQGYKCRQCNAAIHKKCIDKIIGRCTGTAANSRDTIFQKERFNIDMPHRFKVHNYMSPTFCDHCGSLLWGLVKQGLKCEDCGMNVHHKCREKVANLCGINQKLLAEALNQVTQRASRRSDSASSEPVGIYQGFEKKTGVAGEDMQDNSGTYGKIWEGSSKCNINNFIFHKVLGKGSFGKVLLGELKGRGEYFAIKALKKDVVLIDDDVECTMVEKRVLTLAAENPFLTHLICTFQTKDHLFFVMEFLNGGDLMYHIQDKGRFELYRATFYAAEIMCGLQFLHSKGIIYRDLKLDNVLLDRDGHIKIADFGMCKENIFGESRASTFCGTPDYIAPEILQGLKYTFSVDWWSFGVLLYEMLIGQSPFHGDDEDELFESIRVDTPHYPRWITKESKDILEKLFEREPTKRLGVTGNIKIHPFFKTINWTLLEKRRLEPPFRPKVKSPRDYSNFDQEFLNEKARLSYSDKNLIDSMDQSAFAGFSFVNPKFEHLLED

PKCδ/PKCα Selectivity ratio (recombinant PKCδ)	PKCδ/PKCα Selectivity ratio (recombinant PKCδ; listed as 3)	pIC50 (recombinant PKCα; in vitro kinase assay, read-out: PKCα IC50)	SMILES	pIC50 (recombinant PKCδ; [3])	increase in potency compared to rottlerin, LDH release (PCSC cells; data not shown)	effect on formation of spheroids, BCSC [1]	effect on formation of spheroids, PCSC [2]	inhibition of tumor spheroid growth, PC3 (PC3; BJE6-106 at 0.5-1.0 μM) [%]	pIC50 (recombinant PKCδ; PKCδ IC50, in vitro kinase assay)	pIC50 (recombinant PKCα)	cytotoxicity in PCSC (LDH release) (PCSC cells; dose-dependent, 24 and 72 hr)	inhibition at 10 µM (PC3; Homo sapiens, PC-3, rottlerin at 10 μM) [%]
approximately 1000 fold	1000-fold	4.30	CC1(C)C=Cc2cc(CCn3c4ccccc4c4ccccc43)cc(C=O)c2O1 [BJE6-106, 6-(2-(9H-carbazol-9-yl)ethyl)-2,2-dimethyl-2H-chromene-8-carbaldehyde]	~7.30 and 7.30	greater than 10 fold	very efficiently inhibited	very efficiently inhibited	> 96	–	–	–	–
–	–	–	CC(=O)c1c(O)c(C)c(O)c(Cc2c(O)c3c(c(C(=O)/C=C/c4ccccc4)c2O)OC(C)(C)C=C3)c1O [rottlerin, Rottlerin, reference compound]	5.52	–	very efficiently inhibited	very efficiently inhibited	–	~5.30	4.12	induced cytotoxicity	> 96
